IC50 data for 27 molecules are collected here from patent publication US6514964B1, “Fused cycloheptane and fused azacycloheptane compounds and their methods of use” (Amgen Inc., priority 1999, dated 2003).

Structures can show the parent of a compound that is named as a salt.

In this assay the test system is human umbilical cord endothelial cells (HUVEC). Kind of assay: HUVEC proliferation assay and/or HUVEC adhesion assay. The assay is classed as cell-based. Conditions: bound stated for the listed compounds. How it is done: HUVEC Proliferation Assay
1. Coat 3 NUNC polystyrene 96 well plate (VWR, 62409-120; lids 62409-118) with vitronectin (purified internally), fibronectin (Collaborative Biomed 40008A) or fibrinogen (Calbiochem 341578) 50 ng/well in 50 μl PBS, 1 hr @ RT.
a. rinse with 5 mls PBS (no Ca, Mg)
3. Rinse vitronectin plates 1× in 200 μl PBS −/− and add 3000 cells per well in 100 ul growth medium (EBM2 (Clonetics, CC-3156)+EGM2 bullet kit (CC-4176)).
4. Incubate 24 hours at 37° C. to allow attachment.
5. Remove growth medium and add 100 μl growth medium+drugs (25 μM and down by five fold steps in DMSO-0.25% final DMSO concentration).
6. Incubate for 3 days changing media (+drugs).
7. Remove non-adherent cells on Friday with Raindance 12 well plate washer.
8. Wash twice with 200 μl PBS (+Mg & Ca).
9. Tap out excess liquid.
10. Freeze @ −70° C. for 30 minutes.
11. Thaw plate and add 150 μl CyQuant fluorescent dye (Molecular Probes C-7026).
12. Read after 4 minutes @ 485λ (excitation), 530λ (emission).
1. Coat 2 NUNC polystyrene 96 well plates (VWR, 62409-120; lids 62409-118) with 50 μl vitronectin (purified internally) at 50 ng/well in PBS (−Mg & Ca), for 1 hour @ 37° C.
2. Rinse with PBS & block with 150 μl PBS/1% BSA (Sigma A8918), 1 hour at @ 37° C.
3. Prepare drug dilutions:
a. 400 fold concentrate in 100% DMSO
b. 0.25% DMSO [assay]final
c. 10 mM & down (25 μMfinal & down)
d. dilute 1 μl of 400 fold conc into 200 μl adhesion media
a. rinse with 5 ml PBS (no Ca, Mg)
6. Rinse blocking buffer from assay plate and add 50 μl of drug dilutions.
7. Resuspend cells in adhesion media, count and add 2e4 cells/well in 50 μl (4e5/ml).
8. Incubate 60 minutes @ 37° C.
9. Remove non-adherent cells with Raindance 12 well plate washer.
10. Wash twice with 200 μl PBS (+Mg & Ca)
11. Tap out excess liquid.
12. Freeze @ −70° C. for 30 minutes to overnite.
13. Thaw plate and add 150 μl CyQuant fluorescent dye (Molecular Probes C-7026).
14. Read after 2-5 minutes @ 485λ (excitation), 530λ (emission).
Adhesion medium: Media 199 (which contains […] and 0.8 mM MgSO4), 0.5% BSA, 10 mM HEPES, 1 mM MgCl2, and 1 mM MnCl2
The term IC50 denotes the concentration needed to halve the response being measured. Molecule `Cc1cc(CCCNC(=O)N2CCC(CC(=O)O)c3ccccc3C2)nc2c1CCCN2` (stereo not drawn) [2-(2-{N-[3-(5-methyl-1,2,3,4-tetrahydropyridino[2,3-b]pyridin-7-yl)propyl]carbamoyl}-1H, 3H, 4H, 5H-benzo[e]azepin-5-yl)acetic acid] showed an IC50 of at most 30 µM. Regarding `O=C(O)CC1CN(C(=O)NCCc2ccc3c(n2)NCCC3)CCc2ccccc21` (stereo not drawn) [2-(3-(N-(2-(1,2,3,4-tetrahydropyridino[2,3-b]pyridin-7-yl)ethyl)carbamoyl)-1H, 2H, 4H, 5H-benzo[d]azepin-1-yl}acetic acid], the IC50 was at most 30 µM. Regarding `Cc1ccnc(NCCCCNC(=O)N2CCC(CC(=O)O)c3ccccc3C2)c1` (stereo not drawn) [2-[2-(N-{4-[(4-methyl-2-pyridyl)amino]butyl}carbamoyl)-1H, 3H, 4H, 5H-benzo[e]azepin-5-yl]acetic acid], the IC50 is at most 30 µM.

Take `O=C(O)CC1CCN(C(=O)NCCCCNC(=O)NCc2ccccc2)Cc2ccccc21` (stereo not drawn) [2-{2-[N-(4-{[benzylamino]carbonylamino}butyl)carbamoyl]-1H, 3H, 4H, 5H-benzo[e]azepin-5-yl}acetic acid]: the IC50 was at most 30 µM.

Molecule `O=C(O)CC1CCN(C(=O)NCCCNc2ccccn2)Cc2ccccc21` (stereo not drawn) [Example 2, 2-(2-(N-(3-(2-pyridylamino)propyl)carbamoyl)-1H,3H,4H,5H-benzo[e]azain-5-yl)acetic acid] registered an IC50 of at most 30 µM. Molecule `O=C(O)CC1CCN(C(=O)NCCCCNc2ccccn2)Cc2ccccc21` (stereo not drawn) [Example 3, 2-(2-(N-(4-(2-pyridylamino)butyl)carbamoyl)-1H,3H,4H,5H-benzo[e]azapin-5-yl)acetic acid] had an IC50 of at most 30 µM.

Consider `O=C(O)CC1CCN(C(=O)NCCCCCNc2ccccn2)Cc2ccccc21` (stereo not drawn) [Example 4, 2-(2-(N-(5-(2-pyridylamino)pent-1-yl)carbamoyl)-1H,3H,4H,5H-benzo[e]azapin-5-yl)acetic acid], for which the IC50 was at most 30 µM. Turning to `CN(CCCCNc1ccccn1)C(=O)N1CCC(CC(=O)O)c2ccccc2C1` (stereo not drawn) [Example 5, 2-(2-(N-methyl—N-(4-(2-pyridylamino)but-1-yl)carbamoyl)-1H,3H,4H,5H-benzo[e]azapin-5-yl)acetic acid], the IC50 was at most 30 µM. In the case of `O=C(O)CC1CCN(C(=O)NC2CCC(Nc3ccccn3)CC2)Cc2ccccc21` (stereo not drawn) [Example 6, 2-(2-(N-(4-(2-pyridylamino)-trans-cyclohexyl)carbamoyl)-1H,3H,4H,5H-benzo[e]azapin-5-yl)acetic acid], the IC50 is at most 30 µM.

`O=C(O)CC1CCN(C(=O)N2CCC(CNc3ccccn3)CC2)Cc2ccccc21` (stereo not drawn) [Example 7, 2-(2-(((4-(2-pyridylamino)methyl)piperid-1-yl)carbonyl)-1H,3H,4H,5H-benzo[e]azapin-5-yl)acetic acid]: the IC50 was at most 30 µM. `O=C(O)CC1CCN(C(=O)Nc2cccc(CNc3ccccn3)c2)Cc2ccccc21` (stereo not drawn) [Example 8, 2-(2-(N-(3-(2-pyridylamino)methylphenyl)carbamoyl)-1H,3H,4H,5H-benzo[e]azapin-5-yl)acetic acid] gave an IC50 of at most 30 µM.

As to `Cc1cccc(NCCCCNC(=O)N2CCC(CC(=O)O)c3ccccc3C2)n1` (stereo not drawn) [Example 9, 2-(2-(N-(4-((6-methyl-2-pyridyl)amino)but-1-yl)carbamoyl)-1H,3H,4H,5H-benzo[e]azapin-5-yl)acetic acid], the IC50 is at most 30 µM.

As to `O=C(O)CC1CCN(C(=O)NCCCCNc2ncccn2)Cc2ccccc21` (stereo not drawn) [Example 10, 2-(2-(N-(4-(pyrimidin-2-ylamino)but-1-yl)carbamoyl)-1H,3H,4H,5H-benzo[e]azapin-5-yl)acetic acid], the IC50 is at most 30 µM. Turning to `Nc1cccc(CCCNC(=O)N2CCC(CC(=O)O)c3ccccc3C2)n1` (stereo not drawn) [Example 11, 2-(2-(N-(3-(6-amino-2-pyridyl)prop-1-yl)carbamoyl)-1H,3H,4H,5H-benzo[e]azapin-5-yl)acetic acid Hydrochloride], the IC50 is at most 30 µM.

`CC(C)(C)OC(=O)Nc1cccc(CCCNC(=O)N2CCC(CC(=O)O)c3ccccc3C2)n1` (stereo not drawn) [Example 12, 2-(2-(N-(3-(6-(tert-butoxycarbonylamino)-2-pyridyl)proyl)carbamoyl)-1H,3H,4H,5H-benzo[e]azapin-5-yl)acetic acid] gave an IC50 of at most 30 µM. For `O=C(O)CC1CCN(C(=O)NCCCc2ccc3c(n2)NCCC3)Cc2ccccc21` (stereo not drawn) [Example 13, 2-(2-(N-(3-(1,2,3,4-tetrahydropyridino(2,3-b)pyridin-7-yl)prop-1-yl)carbamoyl)-1H,3H,4H,5H-benzo[e]azapin-5-yl)acetic acid] the value was at most 30 µM. For the molecule `O=C(O)CC1CCN(S(=O)(=O)NCCCCNc2ccccn2)Cc2ccccc21` (stereo not drawn) [Example 14, 2-(2-(((4-(2-pyridylamino)but-1-yl)amino)sulfonyl)-1H,3H,4H,5H-benzo[e]azapin-5-yl)acetic acid], the IC50 is at most 30 µM. In turn, `O=C(O)CC1CCN(S(=O)(=O)NCCCNc2ccccn2)Cc2ccccc21` (stereo not drawn) [Example 15, 2-(2-(((3-(2-pyridylamino)prop-1-yl)amino)sulfonyl)-1H,3H,4H,5H-benzo[e]azapin-5-yl)acetic acid] had an IC50 of at most 30 µM. Consider `O=C(O)CC1CCN(C(=O)CNCCNc2ccccn2)Cc2ccccc21` (stereo not drawn) [Example 16, 2-(2-(2-((2-(2-pyridylamino)ethyl)amino)acetyl)-1H,3H,4H,5H-benzo[e]azain-5-yl)acetic acid], for which the IC50 was at most 30 µM. `O=C(O)CC1CCN(C(=O)CNCCCNc2ccccn2)Cc2ccccc21` (stereo not drawn) [Example 17] had an IC50 of at most 30 µM. For `O=C(O)CC1CCN(C(=O)CNCCCCNc2ccccn2)Cc2ccccc21` (stereo not drawn) [Example 18], the IC50 is at most 30 µM.

With `O=C(O)CC1CCN(CC(=O)NCCCNc2ccccn2)Cc2ccccc21` (stereo not drawn) [Example 19, 2-(2-((N-(3-(2-pyridylamino)prop-1-yl)carbamoyl)methyl)-1H,3H,4H,5H-benzo[e]azapin-5-yl)acetic acid], the IC50 was at most 30 µM.

Turning to `O=C(O)CC1CCN(C(=O)OCCCCNc2ccccn2)Cc2ccccc21` (stereo not drawn) [Example 20, 2-(2-(4-(2-pyridylamino)but-1-oxycarbonyl)-1H,3H,4H,5H-benzo[e]azapin-5-yl)acetic acid], the IC50 was at most 30 µM.

`COc1ccc2c(c1)CN(C(=O)NCCCCNc1ccccn1)CCC2CC(=O)O` (stereo not drawn) [Example 22, 2-(8-methoxy-2-(N-(4-(2-pyridylamino)but-1-yl)carbamoyl)-1H,3H,4H,5H-benzo[e]azaerhydroepin-5-yl)acetic acid] returned an IC50 of at most 30 µM. For the molecule `O=C(O)CC1CCN(C(=O)NCCCc2ccc3c(n2)NCCC3)Cc2cc(F)ccc21` (stereo not drawn) [Example 24, 2-(8-fluoro-2-(N-(3-(1,2,3,4-tetrahydropyridino [2,3,b]pyridin-7-yl)propyl)carbamoyl)-1H,3H,4H,5H-benzo[e]azaperhydroepin-5-yl)acetic acid], the IC50 is at most 30 µM. With `O=C(O)CC1CC(=O)N(CC(=O)NCCCNc2ccccn2)Cc2ccccc21` (stereo not drawn) [Example 25, 2-(2-({N-(4-(2-pyridylamino)prop-1-yl)carbamoyl}methyl)-3-oxo-1H,4H,5H-benzo(e)azepin-5-yl) acetic acid], the IC50 is at most 30 µM. For `O=C(O)CC1CN(CC(=O)NCCCCNc2ccccn2)CCc2ccccc21` (stereo not drawn) [Example 27, 2-(3-({N-(4-(2-pyridylamino)but-1-yl)carbamoyl}methyl)-1H,2H,4H,5H-benzo[d]azepin-1-yl) acetic acid], the IC50 is at most 30 µM.
